Experimental data from patent US8168232B2, “Formulations and methods of using nitric oxide mimetics in cancer treatment” (priority 2000, dated 2012).

Assays:
[1] = system: MDA-MB-231 breast cancer cells; experiment: Colony formation assay for doxorubicin resistance, MDA-MB-231 monolayer; format: cell-based, human
Method: The resistance of MDA-MB-231 breast cancer cells to doxorubicin was determined following culture in 20% or 1% oxygen by counting the number of colonies formed. MDA-MB-231 cells were incubated in 1% O2 or 20% O2 for 24 hours. […] The cells were washed and then plated onto 35 mm plates at different dilutions. The cells were incubated for an additional 1-2 weeks in order to allow cell colonies to grow. At the end of the incubation period, the cells were fixed with Carnoy's fixative, stained with Crystal violet, rinsed and allowed to air dry. Colonies were counted visually. The surviving cells under each condition was determined by counting the number of colonies and was expressed as a fraction of the number of colonies that survived without doxorubicin exposure.
Using human MDA-MB-231 breast carcinoma cells in clonogenic assays, survival was determined following doxorubicin exposure and NO mimetic administration to both monolayer and spheroid cultures. […] However, these NO mimetics effectively attenuated the resistance to 200 μM doxorubicin associated with 3D culture by 90% and 30% respectively.

uPAR mRNA = experiment: Northern blot analysis of uPAR mRNA in MDA-MB-231 breast carcinoma cells; format: cell-based, human
[2] = system: HTR-8/SVneo invasive trophoblast cells; experiment: In vitro Matrigel invasion assay, HTR-8/SVneo; format: cell-based; conditions: Homo sapiens, read-out: inhibition of invasiveness of hypoxic cells
Method: The chambers consist of cell culture inserts, 6.5 mm in diameter and with a 8 μm pore size membrane. Each membrane was coated with 100 μL of a 1 mg/mL solution of Matrigel diluted in cold serum-free culture medium (EX-CELL 300), and allowed to dry in a laminar flow cabinet for approximately 12 hours. The Matrigel was then rehydrated by incubating it with 100 μL of serum-free medium for approximately 1 hour. After rehydration, cell suspensions containing 5.0×10^4 or 1.0×10^5 cells in 100 μL of medium, containing both serum and the nitric oxide treatments, were added to each well. Culture medium containing serum and the respective nitric oxide treatment were then added to each insert. The cells were incubated for 24 hours under either hypoxic (1% O2) or control (20% O2) conditions. Following incubation, the non-invading cells were removed from the upper surface of the membrane by wiping with a cotton swab. The cells on the lower surface of the membrane were fixed for 10 minutes with Carnoy's fixative (25% acetic acid, 75% methanol), and then stained for approximately 3 hours with a 1% toluidine blue, 1% sodium borate solution. […] Invading cells were then viewed under the microscope at 40× magnification and counted. The invasion index for each treatment was calculated by dividing the number of invading cells by the number of cells which invaded under standard conditions. […]

O=[N+]([O-])OCC(CO[N+](=O)[O-])O[N+](=O)[O-] [GTN, glyceryl trinitrate]
doxorubicin survival rates vs untreated hypoxic cells ([1]; hypoxic cells, 10^−6 M and 10^−10 M GTN): lower doxorubicin survival rates
attenuation of hypoxia-induced resistance to doxorubicin ([1]; monolayer cells in 1% O2, GTN 1 μM): 50%
effect of DFO on uPAR mRNA expression (uPAR mRNA; 1 μM of GTN): not prevented
uPAR mRNA levels vs untreated hypoxic cells (uPAR mRNA; 1% O2, SNP 10^−12 M, GTN 10^−11 M and 10^−10 M): significantly reduced
hypoxic upregulation of uPAR mRNA expression (uPAR mRNA; GTN 1 μM): prevented
effect of hypoxia on uPAR mRNA when ODQ also present (uPAR mRNA; GTN 1 μM with ODQ 0.5 μM): unable to block
inhibition of DFO (100 μM)-induced upregulation of uPAR (uPAR mRNA; GTN (10^−10 M, 10^−6 M)): could not be inhibited
hypoxia-mediated increase in uPAR mRNA levels (uPAR mRNA; GTN (a pM) as printed): inhibited
uPAR transcript levels vs 20% O2 alone (uPAR mRNA; combination of L-NMMA (0.5 mM) and GTN (0.1 nM), 20% O2): no significant increase
inhibition at 0.1 µM [2]: 56.2%
